This note sets out measurements from EP2198709A1, “Method for treating resistant animal pests” (Bayer CropScience AG, priority 2008, dated 2010).

Holding throughout (format): in vivo
Series [1] has as its system Nilaparvata lugens Vietnam. Briefly: Spray test on infested rice seedlings (standard screening), resistant strain Vietnam. As to conditions: rice seedlings sprayed, evaluation 7 days after infection. The source says: Reissetzlinge wurden mit Stämmen von Nilaparvata lugens (Bayer S und Vietnam) infiziert und mit der Verbindung I-5 bzw. mit Imidacloprid besprüht. Die Auswertung erfolgte 7 Tage nach Infektion (Standard-Screening-Verfahren).

The test system of series [2] is Nymphen von Bemisia argentifolii. The experiment in a line: Field trial on melon plants, spray, against nymphs of neonicotinoid-resistant silverleaf whiteflies (Arizona). The note with it: 150 g ai/ha/m CH, SL 100, Imidacloprid SC 192. From the text: (§1) In Arizona (USA) wurden Melonenpflanzen, die stark mit Nymphen von bekanntermaßen Neonikotinoyl-resistenten Silberflügeligen Weißen Fliegen (Bemisia argentifolii) infiziert waren, jeweils zwei Mal im Abstand von 15 Tagen mit der Verbindung 1-5 (SL 100, 150 g ai/ha/m CH (g aktive Substanz/ha/m CH, CH = Laubwand-Höhe) bzw. mit Imidacloprid (SC 192, 150 g ai/ha/m CH) besprüht. Zu verschiedenen Zeitpunkten nach der ersten bzw. zweiten Behandlung (DAA = Tage nach 1. Behandlung, DAB = Tage nach zweiter Behandlung) wurde die Wirksamkeit (in % Abbott: Verhältnis der Anzahl Nymphen auf behandelter Pflanze / Fläche zur Anzahl Nymphen auf Kontrolle) der beiden Substanzen gegen Nymphen von Bemisia argentifolii bestimmt.

Series [3] deals with Nymphen von Bemisia tabaci. The experiment in a line: Field trial on cotton plants, spray, against nymphs of neonicotinoid-resistant whiteflies (Brenes). The note with it: sprayed 2x, 150 g ai/ha/m CH, I-5 SL 100, Imidacloprid SL 200. From the text:
In Brenes (Spanien) wurden Baumwollpflanzen, die stark mit Nymphen von bekanntermaßen Neonikotinoyl-resistenten Weißen Fliegen (Bemisia tabaci) infiziert waren, jeweils zwei Mal im Abstand von 13 Tagen mit der Verbindung I-5 (SL 100, 150 g ai/ha/m CH (g aktive Substanz/ha/m CH, CH = Laubwand-Höhe) bzw. mit Imidacloprid (SL 200, 150 g ai/ha/m CH) besprüht. Zu verschiedenen Zeitpunkten nach der ersten bzw. zweiten Behandlung (DAA = Tage nach 1. Behandlung, DAB = Tage nach zweiter Behandlung) wurde die Wirksamkeit (in % Abbott: Verhältnis der Anzahl Nymphen auf behandelter Pflanze / Fläche zur Anzahl Nymphen auf Kontrolle) der beiden Substanzen gegen Nymphen von Bemisia tabaci in bestimmt.

Series [4] concerns Trialeurodes vaporariorum. The experiment in a line: Trial on poinsettia, spray, against neonicotinoid-resistant greenhouse whiteflies (Netherlands). As to conditions: 150 g ai/ha/m CH, SL 100, Imidacloprid SL 200. From the text:
In Zwaagdiyk (Niederlande) wurden Weihnachtssterne, die stark mit bekanntermaßen Neonikotinoyl-resistenten Gewächshaus-Weißen Fliegen (Trialeurodes vaporariorum) infiziert waren, jeweils zwei Mal im Abstand von 7 Tagen mit der Verbindung 1-5 (SL 100, 150 g ai/ha/m CH (g aktive Substanz/ha/m CH, CH = Laubwand-Höhe) bzw. mit Imidacloprid (SL 200, 150 g ai/ha/m CH) besprüht. Zu verschiedenen Zeitpunkten nach der ersten bzw. zweiten Behandlung (DAA = Tage nach 1. Behandlung, DAB = Tage nach zweiter Behandlung) wurde die Wirksamkeit (in % Abbott: Verhältnis der Anzahl Tiere auf behandelter Pflanze / Fläche zur Anzahl Tiere auf Kontrolle) der beiden Substanzen gegen Trialeurodes vaporariorum bestimmt.

For series [5], the system named is Eier von Bemisia argentifolii. Briefly: Field trial on melon plants, spray, against eggs of neonicotinoid-resistant silverleaf whiteflies (Arizona). As to conditions: 150 g ai/ha/m CH, I-5 SL 100, Imidacloprid SC 192.
Source text: as §1, with “mit Eiern” for “mit Nymphen”, “Verbindung I-5” for “Verbindung 1-5”, “Anzahl Eier” for “Anzahl Nymphen”, “gegen Eier” for “gegen Nymphen”

For the next series, the system named is Bemisia tabaci SUD-S. Briefly: Leaf-dip bioassay, adult whiteflies, insecticide-susceptible strain SUD-S. As to conditions: adults, mortality after 72 h. The source says: (§2) Es wurden Versuche durchgeführt, um die überlegene Blattwirkung von Enaminocarbonylverbindungen gegen adulte Tiere eines Stamms von Bemisia tabaci zu zeigen, der bekanntermaßen resistent ist gegen Neonikotinoid-Insektizide sowie andere Insektizidklassen, einschließlich Insekten-Wachstumsregulatoren (wie Buprofezin) und Antifeedants (Substanzen, die einen Schaderreger vom Fraß abhalten) (wie Pymetrozin).
(§3) Baumwollblattscheiben (30 mm im Durchmesser) wurden für 5 sec in wässrige Lösungen technischer Insektizide, enthaltend 0,2 g/l Triton-X-100 als nicht-ionisches Benetzungsmittel, getaucht. Luftgetrocknete Blattscheiben wurden dann mit der adaxialen Seite nach unten auf ein Agarbett (12 g/l) in einer kleinen Petrischale (40 mm im Durchmesser) gelegt. Adulte Weiße Fliegen wurden mittels eines Vakuum-getriebenen Aspirators aus Aufzuchtkäfigen eingesammelt und 20 adulte Tiere wurden nach kurzer CO2-Narkose auf die Blattscheiben gelegt. Anschließend wurde jede Petrischale mit einem belüfteten Deckel verschlossen und umgedreht aufbewahrt. Nach 72 h wurde die Mortalität der Weißen Fliegen bestimmt. Jedes Insektizid wurde mindestens dreifach mit 2-oder 3-fach Bestimmungen pro Konzentration getestet.
(§4) LC50-Werte wurden aus Probit-Regressionen unter Verwendung des Computerprogramms POLO-PC 2 (LeOra Software, Berkeley, USA) berechnet.
(§5) Tabelle 1. Log-Dosis Probit Mortalitätsdaten für verschiedene Klassen von Insektiziden erhalten aus Blatt-Tauch-Bioassays gegen adulte Tiere zweier Bemisia tabaci Stämme, SUD-S und ESP-00, die bekanntermaßen Insektizid-empfindlich (SUD-S) bzw. multiresistent (ESP-00) sind (Stumpf und Nauen, 2003). Mortalität wurde nach 72 h bestimmt, mit Ausnahme von Buprofezin (10-12 d).

A further series deals with Bemisia tabaci ESP-00. The experiment in a line: Leaf-dip bioassay, adult whiteflies, multi-resistant strain ESP-00. As to conditions: adults; for ESP-00 LC50: multi-resistant strain ESP-00, mortality after 72 h.
Source text: as §2, §3, §4, §5

[6] abbreviates: 7 DAB (days after 2nd treatment), sprayed 2x.
[7] abbreviates: 8 DAA (days after 1st treatment), sprayed.

On to `O=[N+]([O-])NC1=NCCN1Cc1ccc(Cl)nc1` [Imidacloprid], for which, in series [1], the “Vietnam (resistenter Stamm) LC50” value was 13 g/ha. Moreover, the Effizienz in series [2] (7 DAB, sprayed 2x) is on record as 36,1 % Abbott; in series [2] (8 DAA, sprayed), 53,1 % Abbott; in series [2] (13 DAB, sprayed 2x) it was 31,9 % Abbott; in series [2] (14 DAA, sprayed), 47,6 % Abbott; in series [3] (13 DAB), 60 % Abbott; in series [3] (15 DAB), 56,9 % Abbott. In addition, the Effizienz is recorded as 42,1 % Abbott in series [3] (25 DAB); 24,3 % Abbott in series [3] (36 DAB); 11,4 % Abbott in series [4] (7 DAA, sprayed); 9,9 % Abbott in series [4] (7 DAB, sprayed 2x); 0 % Abbott in series [4] (14 DAB, sprayed 2x); 3,7 % Abbott in series [4] (21 DAB, sprayed 2x). In addition, the Effizienz in series [4] (29 DAB, sprayed 2x) is listed as 18,6 % Abbott; in series [5] (setting [6]), 30,2 % Abbott; in series [5] (setting [7]), 66,1 % Abbott; in series [5] (13 DAB, sprayed 2x) it was 0 % Abbott; in series [5] (14 DAA, sprayed), 69,5 % Abbott. Also, the “SUD-S LC50” value with Bemisia tabaci SUD-S is listed as 0.82 ppm. Besides, in the series with Bemisia tabaci ESP-00, the “ESP-00 LC50” value was 300 ppm.
Regarding `O=C1C=C(N(Cc2ccc(Cl)nc2)CC(F)F)CO1` [Verbindung I-5, 4-{[(6-Chlorpyrid-3-yl)methyl](2,2-difluorethyl)amino}furan-2(5H)-on], the “Vietnam (resistenter Stamm) LC50” value in series [1] is reported as 3,2 g/ha. Besides, the Effizienz is listed as 55,4 % Abbott in series [2] (7 DAB, sprayed 2x); 86,8 % Abbott in series [2] (8 DAA, sprayed); 80,9 % Abbott in series [2] (13 DAB, sprayed 2x); 84,6 % Abbott in series [2] (14 DAA, sprayed); 78,9 % Abbott in series [3] (13 DAB); 63,5 % Abbott in series [3] (15 DAB). Further, the Effizienz in series [3] (25 DAB) is reported as 77,8 % Abbott; in series [3] (36 DAB), 70,8 % Abbott; in series [4] (7 DAA, sprayed), 23 % Abbott; in series [4] (7 DAB, sprayed 2x), 50,9 % Abbott; in series [4] (14 DAB, sprayed 2x), 39,1 % Abbott; in series [4] (21 DAB, sprayed 2x), 62,2 % Abbott. In addition, the Effizienz in series [4] (29 DAB, sprayed 2x) is recorded as 50,9 % Abbott; in series [5] (setting [6]) it was 81,6 % Abbott; in series [5] (setting [7]), 97,6 % Abbott; in series [5] (13 DAB, sprayed 2x) it was 69 % Abbott; in series [5] (14 DAA, sprayed) it was 72,9 % Abbott. For the same compound, in the series on Bemisia tabaci SUD-S, the “SUD-S LC50” value turned out to be 6.7 ppm. Besides, in the series on Bemisia tabaci ESP-00 (leaf-dip, result in words), the “Resistenz / Kreuz-resistenz von adulten B. tabaci Tieren des Stamms ESP-00 im Vergleich zu SUD-S” value is given as “nur geringfügige Kreuz-resistenz”. Also, the “ESP-00 LC50” value with Bemisia tabaci ESP-00 turned out to be 36 ppm.
